Measured values as given in patent publication US20230165252A1, “ACTIVE COMPOUND COMBINATIONS” (Bayer Aktiengesellschaft, priority 2020, published 2023).
Where two headings read alike, the source gives them in different places.

How the values were obtained:
Type in all cases: cell-based
Fusarium culmorum = experiment: in vitro-Test with Fusarium culmorum (microtiter growth inhibition); details: Fusarium culmorum, read-out: Efficacy
In short: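 Cpd/combination in MeOH + emulsifier into wells, solvent evaporated; liquid potato dextrose medium + spore/mycelium suspension added. OD 620 nm at t0; incubate 20° C./85% RH; OD 620 nm again at 3-5 d. % efficacy vs untreated control; combinations compared with expected efficacy (E) calculated by formula.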

Cordana musae = experiment: in vitro-Test with Cordana musae (microtiter growth inhibition); details: Neocordana musae, single substance, read-out: Efficacy
In short: (§1)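 Fungal spores or mycelium in liquid potato dextrose medium are incubated on wells pre-coated with evaporated test material at 20° C. and 85% humidity. Absorbance at 620 nm is taken initially and 3-5 days post-application; efficacy (%) is scaled from untreated control growth (0%) to no growth (100%).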

[1] = system: Ustilago segetum var. avenae; experiment: in vitro-Test with Ustilago segetum var. avenae (microtiter growth inhibition); details: single compound, read-out: Efficacy %
In short: as §1

Parastagonospora nodorum = experiment: in vitro-Test with Parastagonospora nodorum (microtiter growth inhibition); details: Parastagonospora nodorum, compound alone, read-out: Efficacy %
In short: as §1

[2] = system: Colletotrichum lindemuthianum; experiment: in vitro-Test with Colletotrichum lindemuthianum (microtiter growth inhibition); details: Colletotrichum lindemuthianum, read-out: Efficacy %
Description: The degree of efficacy expressed in % is denoted: 0% means an efficacy, which corresponds to that of the control, while an efficacy of 100% means that no disease is observed.
If the actual fungicidal activity exceeds the calculated value, then the activity of the combination is super-additive, i.e. a synergistic effect exists. In this case, the efficacy, which was actually observed, must be greater than the value for the expected efficacy (E), that was calculated from the abovementioned formula.
Example: In Vitro-Test with Fungal Microorganisms
Wells of 96-well microtiter plates are filled with 10 μl of a preparation of test compound or compound combination in methanol+emulsifier alkylaryl-polyglycol-ether. Thereafter, the solvent is evaporated in a hood. At the next step, 100 μl of liquid potato dextrose medium is given into each well, that has been amended with an appropriate concentration of spores or mycelium suspension of the test fungus.
With the aid of a photometer, the extinction in all wells is measured at the wavelength of 620 nm.
The microtiter plates are incubated at 20° C. and 85% relative humidity. The inhibition of growth is determined again photometrically 3-5 days after the application. Efficacy is calculated in relation to the untreated control, 0% efficacy means fungal growth as high as in untreated control while 100% efficacy means no fungal growth is measured.

Cercospora beticola = experiment: in vitro-Test with Cercospora beticola (microtiter growth inhibition); details: Cercospora beticola, read-out: Efficacy %
In short: as §1

Alternaria alternate = experiment: in vitro-Test with Alternaria alternate (microtiter growth inhibition); details: Alternaria, applied alone, read-out: Efficacy
In short: as §1

Diaporthe citri = experiment: in vitro-Test with Diaporthe citri (microtiter growth inhibition); details: Diaporthe citri, read-out: Efficacy; for inhibition of growth at 0.02 ppm: 0.020 ppm
In short: as §1

Compound: Cc1ccc(C(F)(F)CNC(=O)c2c(Oc3cccc(C4CC4)c3F)nnc(Cl)c2C)cc1C [Compound I-749, 6-chloro-3-(3-cyclopropyl-2-fluorophenoxy)-N-[2-(3,4-dimethylphenyl)-2,2-difluoroethyl]-5-methylpyridazine-4-carboxamide]
- inhibition of growth at 0.004 ppm (Fusarium culmorum; 0.004 ppm): 0%
- inhibition of growth at 0.02 ppm (Fusarium culmorum; 0.020 ppm): 10%
- inhibition of growth at 0.1 ppm (Fusarium culmorum; 0.1 ppm): 11%
- inhibition of growth at 0.5 ppm (Fusarium culmorum; 0.5 ppm): 18%
- inhibition of growth at 0.004 ppm (Cordana musae; 0.004 ppm): 0%
- inhibition of growth at 0.02 ppm (Cordana musae; 0.020 ppm): 64%
- inhibition of growth at 0.1 ppm (Cordana musae; 0.1 ppm): 100%
- inhibition of growth at 0.5 ppm (Cordana musae; 0.5 ppm): 100%
- inhibition of growth at 0.004 ppm ([1]; 0.004 ppm): 1%
- inhibition of growth at 0.02 ppm ([1]; 0.020 ppm): 0%
- inhibition of growth at 0.1 ppm ([1]; 0.1 ppm): 0%
- inhibition of growth at 0.5 ppm ([1]; 0.5 ppm): 0%
- inhibition of growth at 0.004 ppm (Parastagonospora nodorum; 0.004 ppm): 0%
- inhibition of growth at 0.02 ppm (Parastagonospora nodorum; 0.020 ppm): 0%
- inhibition of growth at 0.1 ppm (Parastagonospora nodorum; 0.1 ppm): 92%
- inhibition of growth at 0.5 ppm (Parastagonospora nodorum; 0.5 ppm): 100%
- inhibition of growth at 0.004 ppm ([2]; applied alone at 0.004 ppm): 1%
- inhibition of growth at 0.02 ppm ([2]; applied alone at 0.020 ppm): 19%
- inhibition of growth at 0.1 ppm ([2]; applied alone at 0.1 ppm): 100%
- inhibition of growth at 0.5 ppm ([2]; applied alone at 0.5 ppm): 100%
- inhibition of growth at 0.004 ppm (Cercospora beticola; alone, 0.004 ppm): 0%
- inhibition of growth at 0.02 ppm (Cercospora beticola; alone, 0.020 ppm): 0%
- inhibition of growth at 0.1 ppm (Cercospora beticola; alone, 0.1 ppm): 8%
- inhibition of growth at 0.5 ppm (Cercospora beticola; alone, 0.5 ppm): 22%
- inhibition of growth at 0.004 ppm (Cercospora beticola; applied alone at 0.004 ppm): 0%
- inhibition of growth at 0.02 ppm (Cercospora beticola; applied alone at 0.020 ppm): 0%
- inhibition of growth at 0.1 ppm (Cercospora beticola; applied alone at 0.1 ppm): 8%
- inhibition of growth at 0.5 ppm (Cercospora beticola; applied alone at 0.5 ppm): 22%
- inhibition of growth at 0.004 ppm (Alternaria alternate; 0.004 ppm): 0%
- inhibition of growth at 0.02 ppm (Alternaria alternate; 0.020 ppm): 14%
- inhibition of growth at 0.1 ppm (Alternaria alternate; 0.1 ppm): 24%
- inhibition of growth at 0.5 ppm (Alternaria alternate; 0.5 ppm): 100%
- inhibition of growth at 0.004 ppm (Diaporthe citri): 0%
- inhibition of growth at 0.02 ppm (Diaporthe citri): 0%
- inhibition of growth at 0.1 ppm (Diaporthe citri): 0%
- inhibition of growth at 0.5 ppm (Diaporthe citri): 100%
- inhibition of growth at 0.004 ppm (Diaporthe citri; applied alone): 0%
- inhibition of growth at 0.02 ppm (Diaporthe citri; applied alone): 0%
- inhibition of growth at 0.1 ppm (Diaporthe citri; applied alone): 0%
- inhibition of growth at 0.5 ppm (Diaporthe citri; applied alone): 100%
